Source: ChEMBL document CHEMBL1127385, “Synthesis and diuretic activity of alkyl- and arylguanidine analogs of N,N'-dicyclohexyl-4-morpholinecarboxamidine in rats and dogs” (J Med Chem, 1994)

Legend:
Conditions in all cases: in vivo, po
Rattus norvegicus [1] = experiment: Total electrolytic excretion of chlorine in urine of rats after peroral administration of 348 uM/Kg of drug; assay type: ADME, organism-based
Rattus norvegicus [2] = experiment: Total electrolytic excretion of potassium in urine of rats after peroral administration of 105 uM/Kg of drug; assay type: ADME, organism-based
Rattus norvegicus [3] = experiment: Total electrolytic excretion of chlorine in urine of rats after peroral administration of 34.8 uM/Kg of drug; assay type: ADME, organism-based
Rattus norvegicus [4] = experiment: Total electrolytic excretion of sodium in urine of rats after peroral administration of 105 uM/Kg of drug; assay type: ADME, organism-based
Rattus norvegicus [5] = experiment: Total electrolytic excretion of potassium in urine of rats after peroral administration of 34.8 uM/Kg of drug; assay type: ADME, organism-based
Rattus norvegicus [6] = experiment: Total electrolytic excretion of potassium in urine of rats after peroral administration of 348 uM/Kg of drug; assay type: ADME, organism-based
Rattus norvegicus [7] = experiment: Total electrolytic excretion of chlorine in urine of rats after peroral administration of 105 uM/Kg of drug; assay type: ADME, organism-based
Rattus norvegicus [8] = experiment: Tested for the diuretic activity by measuring the urinary volume after peroral administering 34.8 uM/Kg of drug in rats; assay type: ADME, organism-based, Urine
Rattus norvegicus [9] = experiment: Tested for the diuretic activity by measuring the urinary volume after peroral administering 348 uM/Kg of drug in rats; assay type: ADME, organism-based, Urine
Rattus norvegicus [10] = experiment: Total electrolytic excretion of sodium in urine of rats after peroral administration of 34.8 uM/Kg of drug; assay type: ADME, organism-based
Rattus norvegicus [11] = experiment: Total electrolytic excretion of sodium in urine of rats after peroral administration of 348 uM/Kg of drug; assay type: ADME, organism-based
Rattus norvegicus [12] = experiment: Tested for the diuretic activity by measuring the urinary volume after peroral administering 105 uM/Kg of drug in rats; assay type: ADME, organism-based, Urine
Rattus norvegicus [13] = experiment: Ratio of Total electrolytic excretion of sodium and potassium in urine of rats after peroral administration of 105 uM/Kg of drug; assay type: ADME, organism-based
Rattus norvegicus [14] = experiment: Ratio of Total electrolytic excretion of sodium and potassium in urine of rats after peroral administration of 348 uM/Kg of drug; assay type: ADME, organism-based
Rattus norvegicus [15] = experiment: Ratio of Total electrolytic excretion of sodium and potassium in urine of rats after peroral administration of 34.8 uM/Kg of drug; assay type: ADME, organism-based

Question: Which results are given for `c1ccc(N/C(=N/C2CCCCC2)N2CCOCC2)cc1`?
Answer: Excretion Cl- (Rattus norvegicus [1]): 1.39 m equiv; Excretion K+ (Rattus norvegicus [2]): 0.37 m equiv; Excretion Cl- (Rattus norvegicus [3]): 1.04 m equiv; Excretion Na+ (Rattus norvegicus [4]): 1.02 m equiv; Excretion K+ (Rattus norvegicus [5]): 0.27 m equiv; Excretion K+ (Rattus norvegicus [6]): 0.4 m equiv; Excretion Cl- (Rattus norvegicus [7]): 1.12 m equiv; V (Rattus norvegicus [8]): 5.6 mL; V (Rattus norvegicus [9]): 9 mL; Excretion Na+ (Rattus norvegicus [10]): 0.93 m equiv; Excretion Na+ (Rattus norvegicus [11]): 1.37 m equiv; V (Rattus norvegicus [12]): 7.3 mL; Ratio (Rattus norvegicus [13]): 2.8; Ratio (Rattus norvegicus [14]): 3.4; Ratio (Rattus norvegicus [15]): 3.4
